In experiment [1] the test system is Eimeria tenella protozoa (sporozoites). The experiment can be described thus: Direct killing effect against Eimeria tenella protozoa (sporozoites), microscopic count. To be noted: 10 ppm; death rate compared to PBS-treated negative control group. The procedure: (§1) A certain amount of oocysts of the protozoa was put in a tube containing glass beads and pulverized, and then to remove the crushed oocyst cell wall and other debris, internal sporocysts were purified using the percoll density gradient, and washed with PBS solution. A reagent comprising sodium taurocholic acid (Sigma aldrich, USA) and trypsin (Gibco, USA), respectively, was treated to sporocysts of Eimeria tenella for excystation and they were incubated, and then they were washed with PBS solution once and protozoa were obtained.
After reacting 0.1% DMSO, m-coumaric acid (sigma, 14755-02-3), Caffeic acid (sigma, 331-39-5) and Ferulic acid (sigma, 1135-24-6) with the Eimeria tenella protozoa at a concentration of 10 ppm, respectively, only alive protozoa (sporozoites) were counted through microscopic observation. Then, the death rate (%) of the protozoa when each material was treated compared to the PBS-treated negative control group was measured, and the result was shown in Table 8 below.

For experiment [2], the system named is Eimeria tenella. Kind of experiment: Cell invasion inhibition of Eimeria tenella protozoa in MDBK cells (PCR, ITS-1 gene). In kind it is cell-based. To be noted: for inhibition at 10 ppm: read-out: Invasion inhibition %. The procedure: as §1, with “each of Eimeria tenella and Eimeria acervulina” for “the protozoa”, “tenella, Eimeria acervulina and Eimeria maxima” for “tenella”
(§2) The protozoa of Eimeria tenella and Eimeria acervulina were obtained by the method of Example 3-1 above. Sporozoites of 2×10^5 per well were added to a well in which MDBK cells (purchased from ATCC) spread as a monolayer and each material (p-coumaric acid: sigma, CAS No. 501-98-4, and anticoccidial agents, gallic acid: sigma, CAS No. 149-91-7, salinomycin: CAS No. sigma, 53003-10-4, diclazuril: sigma, CAS No. 101831-37-2, p-coumaric acid, gallic acid and salinomycin were treated by 10 ppm, and diclazuril was treated by 1 ppm) was treated to the cells, and cultured at a temperature of 40° C. for 24 hours. The negative control group is MDBK cells infected by the protozoa, and the positive control group means a group in which gallic acid, salinomycin or diclazuril solution was incubated with the protozoa. […] After removing the cells and protozoa inside the cells through pipetting, DNA was extracted from the cells, and PCR was performed using E. tenella ITS-1 (Internal transcribed spacer-1) gene or E. acervulina ACE gene-specific primers. The sequences of the used primers were described in Table 5 below.
(§3) Ct values before/after washing for each material were compared and corrected with the ΔCt value of the negative control group to calculate the fold change (2^−ΔCt) at each time point compared to the control group, and the invasion inhibition rate (%) of the protozoa by material treatment was calculated, and the result was shown in Table 6 and Table 7.
By the similar method to Example 3-2 above, 0.1% DMSO, p-coumaric acid (sigma, CAS No. 501-98-4), m-coumaric acid (sigma, 14755-02-3), and o-coumaric acid (sigma, 614-60-8) were treated at a concentration of 10 ppm, respectively, and the cell invasion inhibition rate against the Eimeria tenella protozoan was measured, and the result was shown in Table 9.

Experiment [3] relates to Eimeria tenella. The experiment can be described thus: Intracellular propagation inhibition of Eimeria tenella protozoa in MDBK cells (PCR, ITS-1 gene). In kind it is cell-based. The procedure:
as §1, with “each of Eimeria tenella and Eimeria acervulina” for “the protozoa”, “tenella, Eimeria acervulina and Eimeria maxima” for “tenella”
The protozoa of Eimeria tenella were obtained by the method of Example 3-1 above. […] Each material (p-coumaric acid, and anticoccidial agents, gallic acid, salinomycin: 10 ppm and diclazuril: 1 ppm) to the cells, and further cultured at a temperature of 40° C. for 24 hours.
The negative control group is MDBK cells infected by the protozoa, and the positive control group means a group in which salinomycin, gallic acid, or diclazuril solution was incubated with the protozoa. After removing the cells and protozoa inside the cells through pipetting, DNA was extracted from the cells using DNA extract kit (iNtRON Biotechnology), and PCR was performed using E. tenella ITS-1 (Internal transcribed spacer-1) gene-specific primers. The sequences of the used primers were described in Table 5 above. Ct values before/after washing for each material were compared and corrected with the ΔCt value of the negative control group to calculate the fold change (2^−ΔCt) at each time point compared to the control group, and the invasion inhibition rate (%) of the protozoa by material treatment was calculated, and the result was shown in Table 6 above.

For experiment [4], the system named is Eimeria acervulina. Kind of experiment: Cell invasion inhibition of Eimeria acervulina protozoa in MDBK cells (PCR, ACE gene). In kind it is cell-based. The note with it: 40° C., 24 hours, p-coumaric acid, gallic acid, salinomycin 10 ppm, diclazuril 1 ppm. The procedure: as §1, with “each of Eimeria tenella and Eimeria acervulina” for “the protozoa”, “tenella, Eimeria acervulina and Eimeria maxima” for “tenella”
as §2, §3

In experiment [5] the test system is Eimeria tenella. The experiment can be described thus: In vivo anticoccidial efficacy in broilers challenge-inoculated with Eimeria tenella oocysts (anticoccidial index). On the set-up: species or system Ross broilers. To be noted: in feed: salinomycin 60 ppm, VantiPEARL 125 ppm, p-coumaric acid 125 ppm; for Oocyst excretion amount: feces of 6-9th day of challenge inoculation, McMaster chamber; for ADG after challenge inoculation: before challenge to 7th day after challenge, 10,000 oocysts oral/broiler; for Oocyst index: index 0/5/10/20/40 from oocyst excretion % compared to infected negative control group; for Appendix lesion index: lesion score x 10; for ACI (anticoccidial index): out of 200 points, Equation 2; for Appendix lesion score: scale 0-4, 9th day after challenge inoculation; for Survival rate: up to the 8th day after challenge inoculation. The procedure: An in vivo efficacy evaluation test was performed in an exclusive broiler animal experiment facility in U.S. One-day-old female Ross broilers were individually weighed and randomly divided into groups to use in an experiment.
For the feed, Korea Feed A1-choi product was used, and each material (salinomycin (Cheil Bio Cheilsalino-60 product), VantiPEAL (Kemin, Cozante, key substance: Gallic acid), p-coumaric acid (CAS No. 501-98-4; sigma)) was added to the feed, respectively, at a concentration described in Table 3 below to be self-mixed. Antibiotics and supplements were not used in general feed and mixed feed, and no anticoccidial agent other than each material was added. Broilers were fed ad libitum throughout the experiment period.
Coccidiosis induction was performed by oral inoculation (challenge inoculation) in an oral tube type of 10,000 oocysts with over 90% mature (sporulation) Eimeria tenella per one individual to 14-day-old broilers.
The feed formulation administered to the control group (negative control group or positive control group) and test group and whether coccidiosis was induced by Eimeria tenella were described in Table 3 below. 6 1-day-old broilers were put in a cage randomly arranged for each test group, and after 14 days of feeding the general feed, the formulated feed prepared above was divided into each control group or test group and ingested.
The anticoccidial efficacy by test group designed in Example 1-2 above was shown as an anticoccidial index (ACI), and the anticoccidial index was calculated by Equation 2 below. The ACI score is out of 200 points, and the higher the ACI score, the more excellent the anticoccidial ability, and when it is 120 points or more to less than 140 points, it is determined that it is effective as an anticoccidial material, and when it is 140 points or more to less than 160 points, it is determined that it is excellent as an anticoccidial material, and when it is 160 points or more, it is determined that the anticoccidial effect is very excellent. (Luis Miguel De Pablos et al., Anticoccidial activity of maslinic acid against infection with Eimeria tenella in chickens, Parasitol Res, 2010) Anticoccidial index (ACI)=(survival rate after challenge inoculation (%))+(daily weight gain compared to negative control group (RWG, %))−(lesion score×10)−(fecal oocyst excretion amount index) (Equation 2)
1) Survival rate: the number of dead individuals was recorded daily, and post mortem autopsy was performed to determine a cause of mortality, and the number of individuals who died due to causes other than coccidiosis was excluded. The survival rate (%) up to the 8th day after challenge inoculation was used for anticoccidial index calculation.
2) Daily weight gain: body weight was measured for each cage before challenge inoculation with a protozoan into an individual and at the 7th day after challenge inoculation, and the difference was divided by the number of days to calculate the daily weight gain (ADG, g/d). ‘Daily weight gain compared to the negative control group (RWG, %)’ which was calculated by dividing the daily weight gain (ADG, average daily gain: g/d) of each experimental group by the weight gain (ADG, g/d) of the non-infected negative control group and multiplying by 100 was used for anticoccidial index calculation.
3) Lesion scoring: On the 9th day after challenge inoculation, an autopsy was conducted for 4 broilers per cage, and the intestines were incised and opened. Scoring was performed for each coccidial lesion in the appendix region of the broilers. The lesion scoring method was performed by referring to Johnson J K & Reid W M (1970) document (Joyce Johnson, W. Malcolm Reid, Anticoccidial drugs: Lesion scoring techniques in battery and floor-pen experiments with chickens, Experimental parasitology, 1970). […]

Setting [6] is: Eimeria tenella, Example 4-2, MDBK cells, 10 ppm.
[7] abbreviates: Example 3-2, MDBK cells, 40° C., 24 hours, p-coumaric acid, gallic acid, salinomycin 10 ppm, diclazuril 1 ppm.
[8] abbreviates: MDBK cells, material added after 24 h invasion and washing, further 24 hours at 40° C., p-coumaric acid, gallic acid, salinomycin 10 ppm, diclazuril 1 ppm.

`O=C(O)/C=C/c1ccc(O)c(O)c1` [Caffeic acid] displayed a Killed sporozoites % in experiment [1] of 0%.
As to `N#CC(c1ccc(Cl)cc1)c1c(Cl)cc(-n2ncc(=O)[nH]c2=O)cc1Cl` (stereo not shown) [Diclazuril, diclazuril], the inhibition at 1 ppm in experiment [2] (Eimeria tenella, Example 3-2, MDBK cells, 40° C., 24 hours, p-coumaric acid, gallic acid, salinomycin 10 ppm, diclazuril 1 ppm) amounted to 6.3%; in experiment [3] (Eimeria tenella, MDBK cells, material added after 24 h invasion and washing, further 24 hours at 40° C., p-coumaric acid, gallic acid, salinomycin 10 ppm, diclazuril 1 ppm), 52.9%; in experiment [4] (Eimeria acervulina), 42.7%.
Turning to `O=C(O)/C=C/c1ccccc1O` [o-coumaric acid], the inhibition at 10 ppm in experiment [2] (setting [6]) was 39.6%.
Take `COc1cc(/C=C/C(=O)O)ccc1O` [Ferulic acid]: the Killed sporozoites % in experiment [1] was 0%.
As to `O=C(O)/C=C/c1ccc(O)cc1` [p-coumaric acid], in experiment [5], the Oocyst excretion amount is recorded as 5.7 × 10^7 Oocyst/chicken, the “RWG (daily weight gain compared to the non-infected negative control group)” value is reported as 94.5%, the “ADG after challenge inoculation” value came to 52 g/day and the Oocyst index is recorded as 10. Further, in experiment [5], the Appendix lesion index was 25, the “ACI (anticoccidial index)” value stood at 160 points, the Appendix lesion score stood at 2.5 and the Survival rate was 100%. Also, the inhibition at 10 ppm in experiment [2] (setting [6]) turned out to be 7.98%. The compound further yielded an Invasion inhibition % in experiment [2] (setting [7]) of 54.3%. Further, in experiment [3] (setting [8]), the Propagation inhibition % amounted to 43.9%. For the same compound, the Invasion inhibition % in experiment [4] is given as 82.6%.
For `O=C(O)/C=C/c1cccc(O)c1` [m-coumaric acid], the inhibition at 10 ppm in experiment [2] (setting [6]) turned out to be 29.8%. Also, the Killed sporozoites % in experiment [1] is reported as 10.7%.
For `CC[C@@H](C(=O)[C@@H](C)[C@@H](O)[C@H](C)[C@@H]1O[C@@H]([C@@H](CC)C(=O)O)CC[C@@H]1C)[C@H]1O[C@]2(C=C[C@@H](O)[C@]3(CC[C@@](C)([C@H]4CC[C@](O)(CC)[C@H](C)O4)O3)O2)[C@H](C)C[C@@H]1C` [Salinomycin, salinomycin], in experiment [5], the Oocyst excretion amount was 6.3 × 10^7 Oocyst/chicken, the “RWG (daily weight gain compared to the non-infected negative control group)” value is recorded as 81.8%, the “ADG after challenge inoculation” value was determined as 45 g/day and the Oocyst index is given as 10. For the same compound, in experiment [5], the Appendix lesion index is 22.7, the “ACI (anticoccidial index)” value was 149 points, the Appendix lesion score amounted to 2.27 and the Survival rate came out at 100%. In addition, the inhibition at 10 ppm in experiment [2] (Eimeria tenella, MDBK, 24 h) was 56.4%. Moreover, the inhibition at 10 ppm in experiment [3] (Eimeria tenella, MDBK, 24 h, read-out: Propagation inhibition %) worked out at 34.8%. In experiment [4] (Eimeria acervulina), this compound yielded an inhibition at 10 ppm of 59.4%.
As for `O=C(O)c1cc(O)c(O)c(O)c1` [Gallic acid, gallic acid], the Invasion inhibition % is on record as 90.1% in experiment [2] (setting [7]) and 60.6% in experiment [4]. Moreover, the Propagation inhibition % in experiment [3] (setting [8]) was determined as 0.0%.

As a reminder, the inhibition is the share of the control response that was lost under treatment.

Values taken from patent US12648919B2, “Anticoccidial composition comprising coumaric acid and use thereof” (CJ CHEILJEDANG CORPORATION, priority 2021, dated 2026).
